According to US20230303647A1, “CYCLIC CHEMERIN-9 DERIVATIVES” (priority 2020, published 2023):
Entries after “also recorded” stand apart in the source; their conditions may differ. One block for each compound: values may come before it. *1 amine or outer side, *2 acyl side, *3 side chain or, on linkers, in order; H or OH if unused. Where a SMILES comes first, the peptide text is derived from it. Bridges are numbered along the chain shown (N, C = ends). [ ]: non-standard residue; d: D form. The star is where a group is joined. ξ: configuration not given here. X1 = CN(C)c1ccc2c(-c3cc(C(=O)*)ccc3C(=O)[O-])c3ccc(=[N+](C)C)cc-3oc2c1; X2 = CN(C)c1ccc2c(-c3cc(C(=O)*)ccc3C(=O)O)c3ccc(=[N+](C)C)cc-3oc2c1; PEG4 = NCCOCCOCCOCCOCCC(=O)O; d(hCys) = N[C@H](CCS)C(=O)O; hCys = N[C@@H](CCS)C(=O)O; ξF = NC(Cc1ccccc1)C(=O)O; CH2 = C([*:1])[*:2]; ξC = NC(CS)C(=O)O

How the values were obtained:
[1] = biological target: T1, CMKLR1 (Homo sapiens, UniProt Q99788); assay: Ca2+ mobilization assay (G protein-mediated signaling)
T1 sequence (Q99788 1-373): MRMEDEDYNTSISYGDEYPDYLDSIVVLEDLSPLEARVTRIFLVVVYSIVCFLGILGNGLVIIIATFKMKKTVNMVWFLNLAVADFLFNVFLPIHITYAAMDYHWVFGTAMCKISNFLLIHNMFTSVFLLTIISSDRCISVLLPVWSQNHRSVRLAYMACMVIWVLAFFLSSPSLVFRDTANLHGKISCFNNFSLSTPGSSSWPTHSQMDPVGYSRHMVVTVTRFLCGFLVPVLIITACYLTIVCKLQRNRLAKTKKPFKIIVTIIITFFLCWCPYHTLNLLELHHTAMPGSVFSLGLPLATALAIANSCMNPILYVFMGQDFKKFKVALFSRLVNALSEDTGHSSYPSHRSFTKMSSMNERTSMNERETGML
Experimental: COS-7 cells were transfected in 75 cm^2 cell culture flasks with 12 μg of the hCMKLR1_eYFP_GαΔ6qi4myr_pV2 plasmid overnight using Metafectene Pro. Transfected cells were seeded in 96 well plates (100 μL cell suspension in DMEM+10% FBS/well) and incubated overnight. The following day, the Ca^2+-mobilization was performed as described previously. […] All experiments were performed in triplicates, each experiment was repeated at least twice. Nonlinear regression was calculated using GraphPad Prism 5.

[2] = Plasma stability assay of Tam-labeled peptides; details: for half-life: human; for stability in blood plasma: over a time period of 24 h
Experimental: Investigation of peptide stability in blood plasma was carried out as described previously. […] Samples taken at the respective time points were added to a solution of 0.1% SDS in ACN/EtOH (1:1). After incubation at −20° C. for 20 min, the supernatant was transferred to a new tube and incubated again at −20° C. for at least 3 h. The solution was filtered by centrifugation using Costar Spin-X tubes (0.22 μm) and the filtrate was analyzed by RP-HPLC on a VariTide RPC. […] Peaks were integrated and the peak containing the intact peptide was normalized to the sample taken at t=0 min (100%).

[3] = biological target: T1, CMKLR1; assay: BRET-based arrestin 3 recruitment assay; details: for arrestin 3 recruitment to the CMKLR1 (in words): BRET, compared with chemerin-9; for Emax: read-out: Emax [%] ± SEM
Experimental: HEK293 cells were transiently transfected using 75 cm^2 cell culture flasks with cell monolayers (confluency of ˜80%). Plasmid DNA of the C-terminally eYFP tagged human CMKLR1 and the chimeric G protein GαΔ6qi4myr in a pVitro2 vector (7.8 μg) and Renilla-luciferase 8-tagged Arrestin 3 in pcDNA3 (0.2 μg) and 24 μl MetafectenePro were separately added to 900 μl DMEM/Ham's F12 and incubated for 10 min before unification and incubation at RT for 20 min. […] The plasmid solution was added and cells were incubated overnight before seeding. Cell seeding was carried out in white 96-well polystyrene cell culture microplates, coated with poly-D lysine. […] Afterwards, the cells were incubated overnight at 37° C. The assay was performed under unsterile conditions. […] Afterwards, the cells were stimulated with the peptides in different concentrations (10^−5 to 10^−12 M) dissolved in BRET buffer. 50 μl of the peptide dilution were used for cell stimulation. Buffer without peptide was used as a negative control. […] The values of the negative control were subtracted, non-linear regression was calculated using GraphPad Prism. […] All measurements were performed in four technical replicates, all experiments were repeated at least twice.
The bioluminescence resonance energy transfer (BRET) assay was used to determine the potency of cyclic chemerin variants to recruit arrestin 3 to the CMKLR1 receptor after stimulation. HEK293 cells were transiently transfected with CMKLR1 receptor fused with eYFP fluorophore and Arrestin 3 tagged with Rluc8 luciferase. The transfected cells were seeded, incubated with the luciferase substrate coelenterazine-h and stimulated with different peptide concentrations, resulting in measurable BRET signals.

[4] = biological target: T1, CMKLR1; assay: Fluorescence microscopy of CMKLR1 internalization and arrestin 3 recruitment; format: cell-based; parameters: expressed in transfected cells; host or cells: HEK293; details: HEK293 cells, 1 μM peptide
Experimental: Ibidi 15μ-slides were coated with poly D-lysine before cell seeding. Cells were washed with DPBS prior to detachment with 1 ml trypsin/EDTA. […] The cell suspension was diluted to 140,000 cells/200 μl, which were seeded. Incubation was carried out overnight at 37° C. Afterwards, cells were transiently transfected. Plasmid DNA of hCMKLR1_eYFP_GαΔ6qi4myr_pV2 (0.9 μg) and mCherry_Arr3_pcDNA3 (0.1 μg) and 8 μl Lipofectamine were separately added to 100 μl DMEM/Ham's F12 and incubated for 10 min before unification and incubation at RT for 20 min. Incubation was carried out overnight at 37° C. […] The medium was replaced by 200 μl of OptiMEM and the to status was documented. The OptiMEM was then replaced by 200 μl of 1 μM peptide in OptiMEM. Fluorophore excitation was analyzed using different filters, depending on the emission wavelength of the fluorophore and the time of exposure was adjusted to each fluorophore individually. All images were processed identically with the AxioVision software (Carl Zeiss AG, Oberkochen, Germany).
To verify the arrestin-recruitment and analyze the internalization of the CMKLR1 receptor itself, HEK293 cells were used and transiently transfected with fluorescent labeled variants of the two molecules.
FIG. 2: Internalization of CMKLR1 and arrestin 3 recruitment. HEK293 cells expressing the hCMKLR1 (green) and arrestin 3 (Arr3; red) due to transient transfection were used for the internalization studies.

[5] = COS-7 cells transfected with hCMKLR1_eYFP_GαΔ6qi4myr, normalized to chemerin-9
[6] = EC50, HEK293 cells, CMKLR1-eYFP and Rluc8-arrestin 3, 15 min after agonist addition

pEC50 ± SEM [1, 5]: 7.553 ± 0.067
SMILES: C[C@@H]1NC(=O)[C@H](Cc2ccccc2)NC(=O)[C@H](CCC(N)=O)NC(=O)[C@H](NC(=O)[C@@H]2CCCN2C(=O)[C@H](Cc2ccccc2)NC(=O)[C@H](N)Cc2ccc(O)cc2)CSCSCC[C@@H](C(=O)O)NC(=O)[C@H](Cc2ccccc2)NC1=O [$$ 11, [y1,c4,X9-TA]-chemerin-9] (H-[dY]FP[dC]QFAF[hCys]-OH; linker 4-9 via CH2)

SMILES: CN(C)c1ccc2c(-c3cc(C(=O)NCCCC[C@H]4NC(=O)C(Cc5ccccc5)NC(=O)[C@@H](CCC(N)=O)NC(=O)[C@H](NC(=O)[C@@H]5CCCN5C(=O)[C@@H](Cc5ccccc5)NC(=O)[C@H](N)Cc5ccc(O)cc5)CSSCC(C(=O)O)NC(=O)[C@@H](Cc5ccccc5)NC4=O)ccc3C(=O)[O-])c3ccc(=[N+](C)C)cc-3oc2c1 (stereo partly shown) [$$ 12, [y1,c4,K7(Tam),C9]-chemerin-9] (H-[dY][dF]P[dC][dQ][ξF][dK](X1)[dF][ξC]-OH; disulfide 4-9)
half-life ([2]; human blood plasma): > 1440 min
stability in blood plasma [2]: equally stable

EC50 [1, 5]: 64 nM
pEC50 ± SEM [1, 5]: 7.192 ± 0.147
SMILES: C[C@@H]1NC(=O)[C@H](Cc2ccccc2)NC(=O)[C@H](CCC(N)=O)NC(=O)[C@H](NC(=O)[C@@H]2CCCN2C(=O)[C@H](Cc2ccccc2)NC(=O)[C@@H](N)Cc2ccc(O)cc2)CSSC[C@@H](C(=O)O)NC(=O)[C@H](Cc2ccccc2)NC1=O [$$ 4, [c4,C9]-chemerin-9, reference compound] (H-YFP[dC]QFAFC-OH; disulfide 4-9)

arrestin 3 recruitment to the CMKLR1 (in words) [3]: accepted; also recorded: no impact
Emax [3]: 102 ± 5%
SMILES: C[C@@H]1NC(=O)[C@H](Cc2ccccc2)NC(=O)[C@H](CCC(N)=O)NC(=O)[C@H](NC(=O)[C@@H]2CCCN2C(=O)[C@H](Cc2ccccc2)NC(=O)[C@H](Cc2ccc(O)cc2)NC(=O)CCOCCOCCOCCOCCN)CCSSC[C@@H](C(=O)O)NC(=O)[C@H](Cc2ccccc2)NC1=O [$$ 16, EG4-[x4,C9]-chemerin-9] (H-[PEG4]YFP[d(hCys)]QFAFC-OH; disulfide 5-10)

arrestin 3 recruitment to the CMKLR1 (in words) [3]: accepted
EC50 [3, 6]: 418 nM
Emax [3]: 69 ± 8%
arrestin 3 recruitment [4]: good arrestin 3 recruitment
receptor internalization ([4]; compared to chemerin-9): slightly lower receptor internalization
EC50 [1]: 193 nM
SMILES: C[C@@H]1NC(=O)[C@H](Cc2ccccc2)NC(=O)[C@H](CCC(N)=O)NC(=O)[C@H](NC(=O)[C@@H]2CCCN2C(=O)[C@H](Cc2ccccc2)NC(=O)[C@H](Cc2ccc(O)cc2)NC(=O)CCOCCOCCOCCOCCN)CCSSC[C@@H](C(=O)O)NC(=O)[C@H](Cc2c[nH]c3ccccc23)NC1=O [$$ 18, EG4-[x4,W8,C9]-chemerin-9] (H-[PEG4]YFP[d(hCys)]QFAWC-OH; disulfide 5-10)

pEC50 ± SEM [1, 5]: 7.888 ± 0.130
SMILES: C[C@@H]1NC(=O)[C@H](Cc2ccccc2)NC(=O)[C@H](CCC(N)=O)NC(=O)[C@H](NC(=O)[C@@H]2CCCN2C(=O)[C@H](Cc2ccccc2)NC(=O)[C@@H](N)Cc2ccc(O)cc2)CSCSC[C@@H](C(=O)O)NC(=O)[C@H](Cc2ccccc2)NC1=O [$$ 7, [c4,C9-TA]-chemerin-9] (H-YFP[dC]QFAFC-OH; linker 4-9 via CH2)

half-life ([2]; plasma): > 1440 min
stability in blood plasma [2]: completely stable
SMILES: C[C@@H]1NC(=O)[C@H](Cc2ccccc2)NC(=O)[C@H](CCC(N)=O)NC(=O)[C@H](NC(=O)[C@@H]2CCCN2C(=O)[C@H](Cc2ccccc2)NC(=O)[C@H](Cc2ccc(O)cc2)NC(=O)c2ccc(C(=O)[O-])c(-c3c4ccc(=[N+](C)C)cc-4oc4cc(N(C)C)ccc34)c2)CSCSC[C@@H](C(=O)O)NC(=O)[C@H](Cc2ccccc2)NC1=O [$$ 8, Tam-[c4,C9-TA]-chemerin-9] (X1-YFP[dC]QFAFC-OH; linker 4-9 via CH2)

SMILES: C[C@@H]1NC(=O)[C@H](Cc2ccccc2)NC(=O)[C@H](CCC(N)=O)NC(=O)[C@H](NC(=O)[C@@H]2CCCN2C(=O)[C@H](Cc2ccccc2)NC(=O)[C@@H](N)Cc2ccc(O)cc2)CCSSC[C@@H](C(=O)O)NC(=O)[C@H](Cc2c[nH]c3ccccc23)NC1=O [$$ 14, [x4,W8,C9]-chemerin-9] (H-YFP[d(hCys)]QFAWC-OH; disulfide 4-9)
EC50 [3]: 158 nM
arrestin 3 recruitment to the CMKLR1 (in words) [3]: accepted; also recorded: no impact
Emax [3]: 97 ± 10%
G protein signaling activity (in words) ([1]; Ca2+ mobilization assay): increased the activity even more
EC50 ([1]; EC50, COS-7 cells transfected with hCMKLR1_eYFP_GαΔ6qi4myr, normalized to chemerin-9): 3 nM
EC50 ([1]; pEC50 ± SEM, COS-7 cells transfected with hCMKLR1_eYFP_GαΔ6qi4myr, normalized to chemerin-9): 3.17 nM

half-life ([2]; human blood plasma): > 2880 min
SMILES: C[C@@H]1NC(=O)[C@H](Cc2ccccc2)NC(=O)[C@H](CCC(N)=O)NC(=O)[C@H](NC(=O)[C@@H]2CCCN2C(=O)[C@H](Cc2ccccc2)NC(=O)[C@H](Cc2ccc(O)cc2)NC(=O)CCOCCOCCOCCOCCNC(=O)c2ccc(C(=O)[O-])c(-c3c4ccc(=[N+](C)C)cc-4oc4cc(N(C)C)ccc34)c2)CCSSC[C@@H](C(=O)O)NC(=O)[C@H](Cc2ccccc2)NC1=O [$$ 17, Tam-EG4-[x4,C9]-chemerin-9] ({X1-PEG4}-YFP[d(hCys)]QFAFC-OH; disulfide 4-9)

half-life ([2]; human blood plasma): > 1440 min
stability in blood plasma [2]: completely stable
SMILES: C[C@@H]1NC(=O)[C@H](Cc2ccccc2)NC(=O)[C@H](CCC(N)=O)NC(=O)[C@H](NC(=O)[C@@H]2CCCN2C(=O)[C@H](Cc2ccccc2)NC(=O)[C@H](Cc2ccc(O)cc2)NC(=O)c2ccc(C(=O)O)c(-c3c4ccc(=[N+](C)C)cc-4oc4cc(N(C)C)ccc34)c2)CSSC[C@@H](C(=O)O)NC(=O)[C@H](Cc2ccccc2)NC1=O [$$ 5, Tam-[c4,C9]-chemerin-9] (X2-YFP[dC]QFAFC-OH; disulfide 4-9)

stability in blood plasma [2]: completely stable
pEC50 ± SEM [1, 5]: 7.429 ± 0.110
SMILES: C[C@@H]1NC(=O)[C@H](Cc2ccccc2)NC(=O)[C@H](CCC(N)=O)NC(=O)[C@H](NC(=O)[C@@H]2CCCN2C(=O)[C@H](Cc2ccccc2)NC(=O)[C@@H](N)Cc2ccc(O)cc2)CSCSCC[C@@H](C(=O)O)NC(=O)[C@H](Cc2ccccc2)NC1=O [$$ 9, [c4,X9-TA]-chemerin-9] (H-YFP[dC]QFAF[hCys]-OH; linker 4-9 via CH2)

half-life ([2]; human blood plasma): > 2880 min
SMILES: C[C@@H]1NC(=O)[C@H](Cc2ccccc2)NC(=O)[C@H](CCC(N)=O)NC(=O)[C@H](NC(=O)[C@@H]2CCCN2C(=O)[C@H](Cc2ccccc2)NC(=O)[C@H](Cc2ccc(O)cc2)NC(=O)CCOCCOCCOCCOCCNC(=O)c2ccc(C(=O)[O-])c(-c3c4ccc(=[N+](C)C)cc-4oc4cc(N(C)C)ccc34)c2)CCSSC[C@@H](C(=O)O)NC(=O)[C@H](Cc2c[nH]c3ccccc23)NC1=O [$$ 19, Tam-EG4-[x4,W8,C9]-chemerin-9] ({X1-PEG4}-YFP[d(hCys)]QFAWC-OH; disulfide 4-9)

EC50 [1]: 62.5 nM
SMILES: NC(=O)CC[C@@H]1NC(=O)[C@H](NC(=O)[C@@H]2CCCN2C(=O)[C@H](Cc2ccccc2)NC(=O)[C@@H](N)Cc2ccc(O)cc2)CSSC[C@@H](C(=O)N[C@@H](Cc2ccccc2)C(=O)N[C@@H](CO)C(=O)O)NC(=O)[C@H](Cc2ccccc2)NC1=O [$$ 6, [c4,C7]-chemerin-9, reference compound] (H-YFP[dC]QFCFS-OH; disulfide 4-7)

Emax [3]: 86.8 ± 4%
SMILES: C[C@@H]1NC(=O)[C@H](Cc2ccccc2)NC(=O)[C@H](CCC(N)=O)NC(=O)[C@H](NC(=O)[C@@H]2CCCN2C(=O)[C@H](Cc2ccccc2)NC(=O)[C@@H](N)Cc2ccc(O)cc2)CCSSC[C@@H](C(=O)O)NC(=O)[C@H](Cc2ccccc2)NC1=O [$$ 13, [x4,C9]-chemerin-9] (H-YFP[d(hCys)]QFAFC-OH; disulfide 4-9)
arrestin 3 recruitment to the CMKLR1 (in words) [3]: only slightly shifted EC50 and Emax values; also recorded: slight loss of activity

EC50 [3, 6]: 100 nM
Emax [3]: 89 ± 5%
EC50 [1]: 21.1 nM
SMILES: CC(=O)NCC(=O)N[C@@H](Cc1ccccc1)C(=O)N[C@@H](CC(C)C)C(=O)NCC(=O)N[C@@H](Cc1ccc(O)cc1)C(=O)N[C@@H](Cc1ccccc1)C(=O)N1CCC[C@H]1C(=O)N[C@@H]1CCSSC[C@@H](C(=O)O)NC(=O)[C@H](Cc2ccccc2)NC(=O)[C@H](C)NC(=O)[C@H](Cc2ccccc2)NC(=O)[C@H](CCC(N)=O)NC1=O [$$ 20, GFLG-[x4,C9]-chemerin-9] (Ac-GFLGYFP[d(hCys)]QFAFC-OH; disulfide 8-13)
